We go through two compounds from ChEMBL document CHEMBL1151503, “Synthesis of novel ellipticine analogues and their inhibition of Moloney leukaemia reverse transcriptase” (Bioorg Med Chem Lett, 1996).

Parameters in all cases: scale not given: the % may be the effect or the level left
Assay [1] has as its system Moloney murine leukemia virus reverse transcriptase. Nature of the assay: Compound was evaluated for inhibition of against moloney leukemia reverse transcriptase at concentration 0.08 mg/mL.
For assay [2] the test system is unchanged. Nature of the assay: Compound was evaluated for inhibition of against moloney leukemia reverse transcriptase at concentration 0.02 mg/mL.
Assay [3] has the same test system. Nature of the assay: Compound was evaluated for inhibition of against moloney leukemia reverse transcriptase at concentration 0.1 mg/mL.
The test system is the same in assay [4]. Nature of the assay: Compound was evaluated for inhibition of against moloney leukemia reverse transcriptase at concentration 0 mg/ml.
Assay [5] has the same test system. Nature of the assay: Compound was evaluated for inhibition of against moloney leukemia reverse transcriptase at concentration 0.01 mg/mL.
For assay [6] the test system is unchanged. Nature of the assay: Compound was evaluated for inhibition of against moloney leukemia reverse transcriptase at concentration 0.04 mg/mL.

On to `Cn1c2ccc(Cl)cc2c2cc3ccccc3c[n+]21`, for which the Control in assay [1] was 1%; in assay [2] it was 30%; in assay [3] it was 2%; in assay [4], 100%; in assay [5] it was 78%; in assay [6], 3%.
`Cn1c2ccccc2c2cc3ccccc3c[n+]21`: the Control in assay [1] is 1%; in assay [2], 30%; in assay [3], 2%; in assay [4], 100%; in assay [5], 48%; in assay [6], 3%.
